Source: PubChem BioAssay (NCI)
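Compound exposure: 48 hours, 5 concentrations, 96-well plates. GI50: concentration for 50% inhibition of growth. TGI is the concentration that stops growth completely.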

Columns and labels:
Assay in all cases: growth of human tumour cells (NCI), 48 h
UO-31 renal = test system: UO-31 renal
NCI-H23 lung = test system: NCI-H23 lung
A498 renal = test system: A498 renal
MALME-3M melanoma = test system: MALME-3M melanoma
IGROV1 ovarian = test system: IGROV1 ovarian
CAKI-1 renal = test system: CAKI-1 renal
SN12C renal = test system: SN12C renal
K-562 leukemia = test system: K-562 leukemia
HL-60(TB) leukemia = test system: HL-60(TB) leukemia
UACC-257 melanoma = test system: UACC-257 melanoma

| SMILES | GI50 (UO-31 renal) [µM] | TGI (UO-31 renal) [µM] | GI50 (NCI-H23 lung) [µM] | TGI (NCI-H23 lung) [µM] | GI50 (A498 renal) [µM] | TGI (A498 renal) [µM] | GI50 (MALME-3M melanoma) [µM] | TGI (MALME-3M melanoma) [µM] | GI50 (IGROV1 ovarian) [µM] | TGI (IGROV1 ovarian) [µM] | GI50 (CAKI-1 renal) [µM] | TGI (CAKI-1 renal) [µM] | GI50 (SN12C renal) [µM] | TGI (SN12C renal) [µM] | GI50 (K-562 leukemia) [µM] | TGI (K-562 leukemia) [µM] | TGI (HL-60(TB) leukemia) [µM] | TGI (UACC-257 melanoma) [µM] | GI50 (HL-60(TB) leukemia) [µM] | GI50 (UACC-257 melanoma) [µM] |
| --- | --- | --- | --- | --- | --- | --- | --- | --- | --- | --- | --- | --- | --- | --- | --- | --- | --- | --- | --- | --- |
| CCCNc1nc(-c2ccc(OC)cc2)nc2ccccc12 | 19.1 | > 100 | 18 | 45.9 | 11.9 | 25 | 15.1 | 29.3 | 24 | > 100 | 13.3 | 27.9 | 20.2 | 46.1 | > 100 | > 100 |  |  |  |  |
| O=S1(=O)CSc2ccc3ccccc3c2-c2c1ccc1ccccc21 |  | > 100 |  | > 100 |  |  |  | > 100 |  | > 100 |  | > 100 |  | > 100 |  | > 100 | > 100 | > 100 |  |  |
| Cc1cc(S(N)(=O)=O)c(S/C(=N\NS(=O)(=O)c2ccc(Cl)cc2)c2ccc(Cl)cc2)cc1Cl | > 100 | > 100 | 44.2 | > 100 |  |  |  |  | > 100 | > 100 | > 100 | > 100 | > 100 | > 100 | 45.3 | > 100 | > 100 | > 100 | 40.6 | > 100 |
| Cc1cc2c(=O)cc(-c3ccc(Cl)cc3)oc2c(C(=O)O)c1C |  | > 100 |  | > 100 |  |  |  | > 100 |  | > 100 |  | > 100 |  | > 100 |  | > 100 |  | > 100 |  |  |
| O=C(/C=C/c1ccccc1F)C(c1ccccc1)c1ccccc1 |  | 25.2 |  |  |  |  |  | 23.7 |  | 30.7 |  | 17.8 |  | 15.2 |  | 9.74 | 11.8 | 17.7 |  |  |
| O=C(NC(=S)NS(=O)(=O)c1ccc(N2N=C3c4ccccc4CC3C2c2cccs2)cc1)c1ccccc1 (stereo unspecified) | 41.1 | > 100 |  |  |  |  |  |  | 3.14 | > 100 | 26.1 | 77.4 | 26 | 96.9 |  |  |  | > 100 |  | 42.8 |
| CCOC(=O)C(=Cc1ccccc1Br)C(=O)OCC |  |  |  | 7.79 |  | 5.07 |  | 8.26 |  | 4.62 |  | 6.83 |  | 15.6 |  | 13.4 | 4 | 14.7 |  |  |
| CCCCCCCCCCCCC(Br)C(=O)SCCNC(=O)CCNC(=O)[C@@H](O)C(C)(C)COP(=O)(O)OP(=O)(O)OCC1OC(n2cnc3c(N)ncnc32)C(O)C1OP(=O)(O)O (stereo partly specified) |  | > 56.5 |  | > 56.5 |  | > 56.5 |  | > 56.5 |  | > 56.5 |  |  |  | > 56.5 |  |  | > 56.5 | 40.4 |  |  |
| COc1ccc2c(CNCCCCO)cc3cc4c(cc3c2c1)OCO4 | 0.21 | 4.12 | 2.24 | 6.43 | 1.16 | 2.98 | 1.65 | 4.08 | 0.407 | 4.75 | 0.628 | 2.96 | 1.92 | 7.72 | 1.07 | 20.3 |  | 2.88 |  | 0.823 |
| CCN1C(=O)N(c2c(F)c(OC)cc(OC)c2F)Cc2cnc3[nH]c(CN4CCOCC4)cc3c21 | 0.878 | > 100 | 7.03 | > 100 |  |  | 1.45 | 20.2 | 1.44 | > 100 | 0.528 | > 100 | 2.78 | 28.2 | 8.66 | > 100 | > 100 | > 100 | 3.05 | 4.69 |
| O=c1c2ccccc2nc(-c2ccc(Cl)cc2)n1O |  | 5.79 |  | > 100 |  | > 100 |  |  |  | 9.61 |  | > 100 |  | > 100 |  | > 100 | 65 | 88.2 |  |  |
| CC(C)(C)c1cc(C(O)(C(F)(F)F)C(F)(F)F)c2c(c1)C(C(F)(F)F)(C(F)(F)F)OC(c1ccccc1)(C(C)(C)C)N2 (stereo unspecified) |  | 15.2 |  | 10.3 |  |  |  | 27.6 |  | 16.7 |  | 16.4 |  | 16.6 |  | 11.6 |  | 19.7 |  |  |
| O=C1c2cccnc2-c2nc(-c3ccc([N+](=O)[O-])cc3)cc3c2c1nc1ccccc13 | 5.1 | > 66.1 | 2.51 | 10.1 | 24.2 | 65.5 | 2.15 | 6.32 | 7.09 | 26 | 13.8 | > 100 | 11.3 | 25.7 | 20.7 | > 100 |  | 7.32 |  | 2.21 |
| Fc1ccc(Nc2nc(Nc3ccc(-c4nc5ccccc5[nH]4)cc3)nc(N3CCCC3)n2)cc1 | 3.13 | 14.4 | 3.36 | 16.8 | 12.8 | 25.7 | 2.17 | 4.81 |  |  | 3.01 | 12.5 | 2.25 | 5.24 | 2.31 | 5.35 | 6.61 |  | 2.64 |  |
| C[n+]1c2ccccc2c(NC2CCNCC2)c2[nH]c3ccccc3c21 | 13.9 | 43.7 | 0.0944 | 0.88 | 1.35 | 5.05 | 1.35 | 3.55 | 0.363 | 5.05 |  | 7.09 | 0.0324 | 0.314 |  |  | > 22.6 | 23.7 | 1.8 | 5.41 |
| COC(=O)/C(C#N)=C1\N=NNN1CCCc1ccccc1 |  | > 100 |  | > 100 |  | > 100 |  | > 100 |  | > 100 |  | > 100 |  | > 100 |  | > 100 |  | > 100 |  |  |
| CC1=C(C(=O)Nc2ccc(F)c(Cl)c2)C(c2cccc(Cl)c2)NC(=O)N1 (stereo unspecified) | 16.1 | 38.1 | 16.8 | 31.9 | 1.39 | 15.5 |  |  | 12.4 | 31.3 | 27.3 | > 100 | 16 | 32.1 |  |  | 0.156 | 56.2 |  | 21.4 |
| O=C1C(c2ccccc2)=C(c2ccccc2)C(c2ccccc2)/C1=C1\C(=O)C(c2ccccc2)=C(c2ccccc2)C1c1ccccc1 (stereo unspecified) |  | > 100 |  | > 100 |  | > 100 |  | > 100 |  | > 100 |  | > 100 |  | > 100 |  |  | > 100 | > 100 |  |  |
